Blank lines part the entries; values can stand above or below the compound they belong to.
Experiments:
[1] = Pharmacokinetics of BUP and HBUP after intravenous BUP in rats; assay type: in vivo, rat; conditions: for AUC: n = 6-7; for Tmax: median (range); for Ae0-24h: urine 0-24 h; for CL renal: plasma and urine; for Vd: read-out: Vss
Method: Male Sprague-Dawley (SD) rats (8 weeks, 260–280 g) were purchased from Nara Biotech Co. (Seoul, Korea). Animals were maintained in cages under controlled conditions under a 12-h dark/light cycle with free access to food and tap water, acclimated for at least five days in the laboratory before experiments, and allocated to a control group or 1,25(OH)2D3-treated group. The 1,25(OH)2D3 dosing solution was prepared by diluting 1,25(OH)2D3 in ethanol with 5 mL of corn oil (2.56 nmol/mL of final concentration). The dosing solution for the control group was prepared but the 1,25(OH)2D3 was omitted. The dosing solutions were administered intraperitoneally to rats at a dose of 1 mL/kg/day (2.56 nmol/kg/day as 1,25(OH)2D3) over four consecutive days. On the fifth day, rats were used for pharmacokinetic study.
In vivo pharmacokinetic animal experiments were accomplished according to the Guide for the Care and Use of Laboratory Animals issued by the National Institute of Health, as described previously. Before starting the animal studies, all experimental protocols were reviewed and approved by the Animal Care and Use Committee of Gachon University (Approval no. GIACUC-R2019020; approved on July 1st, 2019). SD male rats (8–9 weeks, 250–300 g, Nara Biotech Co., Seoul, South Korea) had free access to food and water, acclimatized and maintained in the room under a 12-h light/dark cycle for a week before the study. After pretreatment with 1,25(OH)2D3 for 4 continuous days, the rats in the control and 1,25(OH)2D3 groups were anesthetized with Zoletil® (Vibrac, TX, USA) (10 mg/kg i.m.) and then the femoral vein and artery were cannulated with polyethylene tubing (Clay Adams, NJ, USA) for drug administration and blood sampling, respectively, as described previously. The pharmacokinetic experiment was initiated by drug administration after the rats were recovered from anesthesia. […] Approximately 100 μL of blood was collected via the femoral artery at 0, 1, 5, 15, 30, 60, 120, 180, 240, 360, 480, and 600 min after the drug administration. […] Blood samples were collected at 0, 1, 5, 15, 30, 60, 90, 120, 180, 240, 360, and 480 min later and immediately centrifuged at 14,000× g for 15 min at 4 °C. For compensation of fluid loss, a same volume of saline was intravenously provided after each sample collection. Plasma was then separated from whole blood cells and stored at −20 °C for further analysis. Urine samples were collected 0–4, 4–8, and 8–24 h after drug administration. The collected urine samples were diluted with distilled deionized water (DDW) 20-fold prior to LC-MS/MS analysis. […] The weighted tissues were homogenized on ice by an electric homogenizer following adding 2-fold volume of PBS. The homogenates were stored before LC-MS/MS analysis.
(§1) Moreover, CLNR was calculated to subtract CLR from CL.

[2] = Pharmacokinetics of TOL and HTOL after intravenous TOL in rats; assay type: in vivo, rat; conditions: for Tmax: median (range); for Ae0-24h: urine 0-24 h; for Vd: read-out: Vss
Method: (§2) Male Sprague-Dawley (SD) rats (8 weeks, 260–280 g) were purchased from Nara Biotech Co. (Seoul, Korea). […] The dosing solution for the control group was prepared but the 1,25(OH)2D3 was omitted. […] On the fifth day, rats were used for pharmacokinetic study.
(§3) In vivo pharmacokinetic animal experiments were accomplished according to the Guide for the Care and Use of Laboratory Animals issued by the National Institute of Health, as described previously. […] After pretreatment with 1,25(OH)2D3 for 4 continuous days, the rats in the control and 1,25(OH)2D3 groups were anesthetized with Zoletil® (Vibrac, TX, USA) (10 mg/kg i.m.) and then the femoral vein and artery were cannulated with polyethylene tubing (Clay Adams, NJ, USA) for drug administration and blood sampling, respectively, as described previously. The pharmacokinetic experiment was initiated by drug administration after the rats were recovered from anesthesia. […] Approximately 100 μL of blood was collected via the femoral artery at 0, 1, 5, 15, 30, 60, 120, 180, 240, 360, 480, and 600 min after the drug administration. […] For compensation of fluid loss, a same volume of saline was intravenously provided after each sample collection. Plasma was then separated from whole blood cells and stored at −20 °C for further analysis. […] The collected urine samples were diluted with distilled deionized water (DDW) 20-fold prior to LC-MS/MS analysis. […] The weighted tissues were homogenized on ice by an electric homogenizer following adding 2-fold volume of PBS. The homogenates were stored before LC-MS/MS analysis.
as §1

[3] = Tissue distribution of TOL and HTOL in rats; assay type: in vivo, rat; conditions: for Tissue to plasma concentration ratio (Kp), Liver: n = 4-6
Method: as §2, §3

Cyp2c11 = target: T1, Cyp2c11 (Rattus norvegicus, UniProt P08683); assay: Tolbutamide 4-hydroxylation (HTOL formation) in rat liver microsomes; conditions: for CLint: n = 3
T1 sequence (P08683 1-500): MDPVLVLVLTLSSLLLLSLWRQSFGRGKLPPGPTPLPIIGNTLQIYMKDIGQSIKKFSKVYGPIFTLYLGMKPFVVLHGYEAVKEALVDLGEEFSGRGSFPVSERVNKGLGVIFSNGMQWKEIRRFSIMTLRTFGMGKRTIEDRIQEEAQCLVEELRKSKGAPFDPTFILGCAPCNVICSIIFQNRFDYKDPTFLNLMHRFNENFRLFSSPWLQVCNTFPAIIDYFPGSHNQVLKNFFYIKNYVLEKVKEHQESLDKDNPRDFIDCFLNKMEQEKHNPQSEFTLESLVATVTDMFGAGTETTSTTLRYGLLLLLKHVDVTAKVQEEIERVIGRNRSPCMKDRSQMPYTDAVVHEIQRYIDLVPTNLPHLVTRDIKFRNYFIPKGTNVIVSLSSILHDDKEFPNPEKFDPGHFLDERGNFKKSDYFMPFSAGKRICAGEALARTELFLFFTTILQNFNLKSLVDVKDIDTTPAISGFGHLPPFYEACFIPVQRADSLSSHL

[4] = i.v. 5 mg/kg BUP, 1,25(OH)2D3-treated rats
[5] = male, Sprague-Dawley, rat, plasma, iv, 5 mg/kg, i.v. 5 mg/kg BUP, 1,25(OH)2D3-treated rats
[6] = male, Sprague-Dawley, rat, plasma, iv, 5 mg/kg, i.v. 5 mg/kg BUP, control rats
[7] = formed metabolite, i.v. 2 mg/kg TOL, 1,25(OH)2D3-treated rats
[8] = formed metabolite, i.v. 2 mg/kg TOL, control rats
[9] = i.v. 2 mg/kg TOL, 1,25(OH)2D3-treated rats
[10] = 8 h after i.v. 2 mg/kg TOL, 1,25(OH)2D3-treated rats
[11] = 8 h after i.v. 2 mg/kg TOL, control rats
[12] = male, Sprague-Dawley, rat, plasma, iv, 2 mg/kg, i.v. 2 mg/kg TOL, 1,25(OH)2D3-treated rats
[13] = male, Sprague-Dawley, rat, plasma, iv, 2 mg/kg, i.v. 2 mg/kg TOL, control rats

SMILES: C[C@H]1NC(C)(C)CO[C@]1(O)c1cccc(Cl)c1 [HBUP, hydroxybupropion]
CLR [1, 4]: 0.077 ± 0.031 mL/min/kg
Cmax [1, 4]: 0.068 ± 0.021 µg/mL
t1/2 [1, 4]: 197.0 ± 54.2 min
AUC [1, 4]: 19.77 ± 9.04 µg·min/mL
CLR ([1]; i.v. 5 mg/kg BUP, control rats): 0.222 ± 0.124 mL/min/kg
Cmax ([1]; i.v. 5 mg/kg BUP, control rats): 0.046 ± 0.032 µg/mL
t1/2 ([1]; i.v. 5 mg/kg BUP, control rats): 160.4 ± 37.6 min
AUC ([1]; i.v. 5 mg/kg BUP, control rats): 4.610 ± 1.898 µg·min/mL
Tmax [1, 4]: 15 (15–60) min
Tmax ([1]; i.v. 5 mg/kg BUP, control rats): 15 min
Ae0-24h [1, 4]: 0.026 ± 0.008 % of dose
Ae0-24h ([1]; i.v. 5 mg/kg BUP, control rats): 0.015 ± 0.007 % of dose

Renal clearance as portion of total clearance ([1]; 1,25(OH)2D3-treated rats): 1.92%
Renal clearance as portion of total clearance ([1]; control rats): 0.7%
CLNR [1, 4]: 53.55 ± 13.02 mL/min/kg
CLNR ([1]; i.v. 5 mg/kg BUP, control rats): 93.08 ± 13.73 mL/min/kg
CL renal ([1]; male, Sprague-Dawley, rat, iv, 5 mg/kg, i.v. 5 mg/kg BUP, 1,25(OH)2D3-treated rats): 1.05 ± 0.407 mL/min/kg
CL renal ([1]; male, Sprague-Dawley, rat, iv, 5 mg/kg, i.v. 5 mg/kg BUP, control rats): 0.662 ± 0.635 mL/min/kg
MRT [1, 5]: 1.47 h
clearance [1, 5]: 54.6 ± 13.4 mL/min/kg
half-life [1, 5]: 135 ± 48.7 min
AUC ([1]; male, Sprague-Dawley, rat, plasma, iv, 5 mg/kg, i.v. 5 mg/kg BUP, 1,25(OH)2D3-treated rats, read-out: AUC (converted)): 96.3 µg·min/mL
Vd [1, 5]: 5.4 ± 1.87 L/kg
MRT [1, 6]: 1.19 h
clearance [1, 6]: 93.6 ± 14.2 mL/min/kg
half-life [1, 6]: 155 ± 25.9 min
AUC ([1]; male, Sprague-Dawley, rat, plasma, iv, 5 mg/kg, i.v. 5 mg/kg BUP, control rats, read-out: AUC (converted)): 54.4 µg·min/mL
Vd [1, 6]: 7.82 ± 1.95 L/kg
Ae0-24h [1, 4]: 1.791 ± 0.031 % of dose
Ae0-24h ([1]; i.v. 5 mg/kg BUP, control rats): 0.719 ± 0.613 % of dose
SMILES: CC(NC(C)(C)C)C(=O)c1cccc(Cl)c1 (stereo not drawn) [BUP, bupropion]

AUC [2, 7]: 151.9 ± 52.0 µg·min/mL
CLR [2, 7]: 0.873 ± 0.134 mL/min/kg
AUC [2, 8]: 100.8 ± 65.2 µg·min/mL
CLR [2, 8]: 2.713 ± 0.570 mL/min/kg
Cmax [2, 9]: 0.207 ± 0.119 µg/mL
t1/2 [2, 9]: 629.7 ± 491.6 min
Cmax ([2]; i.v. 2 mg/kg TOL, control rats): 0.167 ± 0.067 µg/mL
t1/2 ([2]; i.v. 2 mg/kg TOL, control rats): 521.3 ± 499.0 min
Tmax [2, 9]: 120 (60–240) min
Tmax ([2]; i.v. 2 mg/kg TOL, control rats): 60 (15–120) min
Ae0-24h [2, 9]: 5.539 ± 2.305 % of dose
Ae0-24h ([2]; i.v. 2 mg/kg TOL, control rats): 9.356 ± 0.471 % of dose
Tissue to plasma concentration ratio (Kp), Brain [3, 10]: 0.019 ± 0.004
Tissue to plasma concentration ratio (Kp), Heart [3, 10]: 0.252 ± 0.036
Tissue to plasma concentration ratio (Kp), Kidney [3, 10]: 7.768 ± 0.014
Tissue to plasma concentration ratio (Kp), Spleen [3, 10]: 0.163 ± 0.008
Tissue to plasma concentration ratio (Kp), Liver [3, 10]: 0.657 ± 0.129
Tissue to plasma concentration ratio (Kp), Brain [3, 11]: 0.020 ± 0.008
Tissue to plasma concentration ratio (Kp), Heart [3, 11]: 0.175 ± 0.013
Tissue to plasma concentration ratio (Kp), Kidney [3, 11]: 5.335 ± 1.127
Tissue to plasma concentration ratio (Kp), Spleen [3, 11]: 0.137 ± 0.010
Tissue to plasma concentration ratio (Kp), Liver [3, 11]: 0.831 ± 0.152
SMILES: CCCCNC(=O)NS(=O)(=O)c1ccc(CO)cc1 [HTOL, 4-hydroxytolbutamide]

CLNR [2, 9]: 0.206 ± 0.045 mL/min/kg
CLNR ([2]; i.v. 2 mg/kg TOL, control rats): 0.189 ± 0.030 mL/min/kg
clearance [2, 12]: 0.206 ± 0.045 mL/min/kg
half-life [2, 12]: 564 ± 208 min
AUC ([2]; male, Sprague-Dawley, rat, plasma, iv, 2 mg/kg, i.v. 2 mg/kg TOL, 1,25(OH)2D3-treated rats, n = 9-10, read-out: AUC (converted)): 10200 µg·min/mL
Vd [2, 12]: 0.153 ± 0.0195 L/kg
MRT [2, 13]: 11 h
clearance [2, 13]: 0.189 ± 0.027 mL/min/kg
half-life [2, 13]: 463 ± 154 min
AUC ([2]; male, Sprague-Dawley, rat, plasma, iv, 2 mg/kg, i.v. 2 mg/kg TOL, control rats, n = 9-10, read-out: AUC (converted)): 10800 µg·min/mL
Vd [2, 13]: 0.12 ± 0.0156 L/kg
CL renal ([2]; male, Sprague-Dawley, rat, urine and plasma, iv, 2 mg/kg): 0.3 ± 0.148 mL/day/kg
Ae0-24h [2, 9]: 0.024 ± 0.016 % of dose
Ae0-24h ([2]; i.v. 2 mg/kg TOL, control rats): 0.124 ± 0.059 % of dose
CLint (Cyp2c11; RLMs from 1,25(OH)2D3-treated rats): 0.89 ± 0.18 μL/min/mg protein
CLint (Cyp2c11; RLMs from control rats): 3.00 ± 0.63 μL/min/mg protein
CLint lower in 1,25(OH)2D3-treated rats than in controls (Cyp2c11; RLMs, p = 0.0051): 70%
SMILES: CCCCNC(=O)NS(=O)(=O)c1ccc(C)cc1 [TOL, tolbutamide]

Source: publication PMC7700423, “Differential Effects of 1α,25-Dihydroxyvitamin D3 on the Expressions and Functions of Hepatic CYP and UGT Enzymes and Its Pharmacokinetic Consequences In Vivo” (Pharmaceutics, 2020)
